Data on three molecules can be found in patent US6512130B1, “Mifepristone analogue, process for the preparation thereof and use thereof” (Council of Scientific and Industrial Research, priority 2000, dated 2003).

“And” between values parts separate entries of the source, which are not always exact repeats. Identical values can stand only once.

The experiment has as its target T1, rabbit uterine progesterone receptor (Oryctolagus cuniculus, UniProt P06186).
T1 construct: performed using rabbit uterine cytosol and 3H progesterone (radioligand); from tissue; host or cells: uterus of immature, estradiol-dipropionate-primed rabbits; 105000 x g cytosol treated with dextran-coated charcoal
T1 sequence (P06186 1-930): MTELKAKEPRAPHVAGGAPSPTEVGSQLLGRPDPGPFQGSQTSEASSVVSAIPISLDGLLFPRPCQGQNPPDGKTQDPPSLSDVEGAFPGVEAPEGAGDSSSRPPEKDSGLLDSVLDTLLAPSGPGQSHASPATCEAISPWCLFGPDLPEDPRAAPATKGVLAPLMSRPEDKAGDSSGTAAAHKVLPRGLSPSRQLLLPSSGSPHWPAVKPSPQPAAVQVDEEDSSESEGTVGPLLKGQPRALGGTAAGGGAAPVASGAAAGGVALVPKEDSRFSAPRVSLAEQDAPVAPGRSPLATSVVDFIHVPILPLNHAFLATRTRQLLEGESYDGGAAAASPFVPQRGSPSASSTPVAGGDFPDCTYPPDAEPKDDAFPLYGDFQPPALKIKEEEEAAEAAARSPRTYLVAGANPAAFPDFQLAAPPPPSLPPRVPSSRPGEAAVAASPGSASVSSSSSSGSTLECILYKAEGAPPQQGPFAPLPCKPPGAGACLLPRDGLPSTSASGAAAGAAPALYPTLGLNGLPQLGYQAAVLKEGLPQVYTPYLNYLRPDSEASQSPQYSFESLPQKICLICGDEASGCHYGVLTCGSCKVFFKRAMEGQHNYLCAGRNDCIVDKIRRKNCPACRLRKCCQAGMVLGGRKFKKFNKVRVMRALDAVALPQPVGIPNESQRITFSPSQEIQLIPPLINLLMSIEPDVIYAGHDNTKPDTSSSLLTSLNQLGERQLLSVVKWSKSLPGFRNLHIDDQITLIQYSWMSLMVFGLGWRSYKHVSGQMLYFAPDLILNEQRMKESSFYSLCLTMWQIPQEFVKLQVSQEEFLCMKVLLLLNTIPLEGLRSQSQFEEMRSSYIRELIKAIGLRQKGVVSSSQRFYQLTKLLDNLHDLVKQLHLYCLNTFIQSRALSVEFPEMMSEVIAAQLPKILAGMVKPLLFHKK
The experiment can be described thus: Competitive binding assay for progesterone receptors using rabbit uterine cytosol and 3H-progesterone. The settings on record: rabbit uterine cytosol, 3H-progesterone 8×10^−9 M, 1 μM unlabelled cortisol, 4° C. 20 hours; progesterone taken as 100. The procedure:
Crude products 3, 4, and 5 may be purified by column chromatography using silica gel, basic alumina, acidic alumina or neutral alumina as adsorbants and ethyl acetate, ethyl acetate-benzene, or ethyl acetate-chloroform as solvent systems. […] The competitive binding assay for progesterone receptors (PR) was performed using rabbit uterine cytosol and 3H progesterone (radioligand) in the presence of unlabelled cortisol at 4° C. Competitor dilutions were prepared in DMF:Tris buffer pH 7.4 (1:1). […] The activity of progesterone is taken as 100.
Animals. Immature rabbits weighing about 1 kg were administered 100 μg estradioldipropionate intramuscularly for four days and were sacrificed on the fifth day. Uteri were removed, washed with ice cold saline and weighed. Uteri were homogenised in four volumes of 50 mM Tris buffer, pH 7.4 containing 1 mM EDTA, 12 mM monothioglycerol and 10% glycerol (v/v) at 2° C. using polytron PT-10 homoniser.
The homogenate was ultracentrifuged at 105000×g for 60 minutes at 4° C. The resultant supernatant (cytosol) was treated with equal volume of dextran coated charcoal (0.5% charcoal and 0.05% dextran in TEMG buffer) for 30 minutes with occasional stirring at 0° C. DCC treated cytosol was used for binding assay.
Prior to the assay, cytosol was Incubated with 1 μM unlabelled cortisol for 30 minutes at 0° C. Aliquots of the cytosol were incubated at 4° C. for 20 hours with a constant concentration of ^3H-progesterone (8×10^−9 M) in the absence or presence of increasing concentration (1 to 10000×10^−9 M) of either unlabelled progesteroine or test compounds. ^3H-progesterone bound was measured for each incubate by the technique of charcoal adsorption.
Calculation of relative binding affinity of test compounds was done by plotting the curves between the percentage of bound titrated progesterone as a function of the iogarithm of the unlabelled progesterone concentration and as a function of logarithm of the concentration of unlabelled test compounds (FIGS. 1 and 2). […]
Take `CC(C)C#C[C@]1(O)CCC2C3CCC4=CC(=O)CCC4=C3C(c3ccc(N(C)C)cc3)C[C@@]21C` (stereo partly drawn) [Compound 1, 11β-[4-(N,N-dimethylamino)phenyl]-17β-hydroxy-17α-(3-methyl-1-butynyl)-estra-4,9-dien-3-one]: the “Relative binding affinity (%)” value turned out to be 174.65%.

As to `CC#C[C@]1(O)CC[C@H]2[C@@H]3CCC4=CC(=O)CCC4=C3[C@@H](c3ccc(N(C)C)cc3)C[C@@]21C` [Compound 6, Mifepristone], the “Relative binding affinity (%)” value was 103% and 103.44%.

Take `CC(=O)[C@H]1CC[C@H]2[C@@H]3CCC4=CC(=O)CC[C@]4(C)[C@H]3CC[C@]12C` [Progesterone]: the “Relative binding affinity (%)” value is listed as 100%.
